Measured values reported in patent publication CN1221752A, “与阿卡加定相关的新型羊毛硫抗生素及其制备方法和用途” (priority 1997, dated 1999).
Read-outs that look alike come from different tables or passages of the source.

How the values were obtained:
化脓葡萄球菌A561 = assay type: cell-based, 化脓葡萄球菌; settings: strain A561
化脓葡萄球菌 02A1SJ1 = assay: In vitro antibacterial activity, MIC, 18 h; assay type: cell-based; settings: incubation time 18h; strain 02A1SJ1
粪肠球茵 02D2DU18 = assay: In vitro antibacterial activity, MIC, 18 h; assay type: cell-based; settings: incubation time 18h; strain 02D2DU18
大肠杆菌 = assay type: cell-based
金黄色葡萄球菌 O11HT1 = assay: In vitro antibacterial activity, MIC, 18 h; assay type: cell-based; settings: incubation time 18h; strain O11HT1
化脓葡萄球菌 02A1CU1 = assay: In vitro antibacterial activity, MIC, 18 h; assay type: cell-based; settings: incubation time 18h; strain 02A1CU1
粪肠球菌 02D2uC5 = assay: In vitro antibacterial activity, MIC, 18 h; assay type: cell-based; settings: incubation time 18h; strain 02D2uC5
金黄色葡萄球菌Exp54146 = assay type: cell-based, 金黄色葡萄球菌; settings: strain Exp54146
S.pnenmoniae 030BI2 = assay: In vitro antibacterial activity, MIC, 18 h; assay type: cell-based; settings: incubation time 18h; strain 030BI2
粪肠球菌 02D2HT10 = assay: In vitro antibacterial activity, MIC, 18 h; assay type: cell-based; settings: incubation time 18h; strain 02D2HT10
金黄色葡萄球菌 011DU5 = assay: In vitro antibacterial activity, MIC, 18 h; assay type: cell-based; settings: incubation time 18h; strain 011DU5
表皮葡萄球菌 012GO20 = assay: In vitro antibacterial activity, MIC, 18 h; assay type: cell-based; settings: incubation time 18h; strain 012GO20
化脓葡萄球菌 02A1F16 = assay: In vitro antibacterial activity, MIC, 18 h; assay type: cell-based; settings: incubation time 18h; strain 02A1F16
S.mitis 02mitGR16 = assay: In vitro antibacterial activity, MIC, 18 h; assay type: cell-based; settings: incubation time 18h; strain 02mitGR16
[1] = Stability in solution (physicochemical properties); settings: neutral / weakly alkaline vs strongly acidic / strongly alkaline media
[2] = Tolerability and toxicity; settings: at the active concentration and the concentrations mentioned above
金黄色葡萄球菌 011CB20 = assay: In vitro antibacterial activity, MIC, 18 h; assay type: cell-based; settings: incubation time 18h; strain 011CB20
粪肠球菌 02D2HM9 = assay: In vitro antibacterial activity, MIC, 18 h; assay type: cell-based; settings: incubation time 18h; strain 02D2HM9
011HT3 = assay: In vitro antibacterial activity, MIC, 18 h; assay type: cell-based; settings: incubation time 18h
屎肠球菌M78L = assay type: cell-based, 屎肠球菌; settings: strain M78L
[3] = Solubility (physicochemical properties); settings: methanol, water
011HT18 = assay: In vitro antibacterial activity, MIC, 18 h; assay type: cell-based; settings: incubation time 18h; strain 011HT18
[4] = system: Staph.coag.negative012HT5; assay: In vitro antibacterial activity, MIC, 18 h; assay type: cell-based, Staph.coag.negative; settings: incubation time 18h; strain 012HT5
表皮葡萄球菌 012GO42 = assay: In vitro antibacterial activity, MIC, 18 h; assay type: cell-based; settings: incubation time 18h; strain 012GO42
Streptogr G02G0CB2 = assay: In vitro antibacterial activity, MIC, 18 h; assay type: cell-based, Streptogr G; settings: incubation time 18h; strain 02G0CB2
金黄色葡萄球菌 0121O64 = assay: In vitro antibacterial activity, MIC, 18 h; assay type: cell-based; settings: incubation time 18h; strain 0121O64
金黄色葡萄球菌SG511 = assay type: cell-based, 金黄色葡萄球菌
S.milleri 02milGR12 = assay: In vitro antibacterial activity, MIC, 18 h; assay type: cell-based; settings: incubation time 18h; strain 02milGR12
[5] = strain 011HT3 + 50% serum (first such line)
[6] = strain 011HT3 + 50% serum (second such line)
[7] = incubation time 24h, strain SG511
[8] = incubation time 24h, strain SG511 + 10% serum
[9] = Boc-derivative table, 接种时间24h, strain SG511
[10] = Boc-derivative table, 接种时间24h, strain SG511 + 10% serum

Substance | MIC (化脓葡萄球菌A561; incubation time 24h) [µg/mL] | MIC (化脓葡萄球菌 02A1SJ1) [µg/mL] | MIC (粪肠球茵 02D2DU18) [µg/mL] | MIC (大肠杆菌; incubation time 24h) [µg/mL] | MIC (金黄色葡萄球菌 O11HT1) [µg/mL] | MIC (化脓葡萄球菌 02A1CU1) [µg/mL] | MIC (粪肠球菌 02D2uC5) [µg/mL] | MIC (金黄色葡萄球菌Exp54146; incubation time 24h) [µg/mL] | MIC (S.pnenmoniae 030BI2) [µg/mL] | MIC (粪肠球菌 02D2HT10) [µg/mL] | MIC (金黄色葡萄球菌 011DU5) [µg/mL] | MIC (表皮葡萄球菌 012GO20) [µg/mL] | MIC (化脓葡萄球菌 02A1F16) [µg/mL] | MIC (S.mitis 02mitGR16) [µg/mL] | MIC (粪肠球菌 02D2HM9) [µg/mL] | MIC (011HT3; strain 011HT3) [µg/mL] | MIC (011HT3; [5]) [µg/mL] | MIC (屎肠球菌M78L; incubation time 24h) [µg/mL] | MIC (金黄色葡萄球菌SG511; [7]) [µg/mL] | MIC (金黄色葡萄球菌SG511; [8]) [µg/mL] | further results
Ala(0)-阿卡加定 | ≤ 0.04 | ≤ 0.04 | 5 | > 40 | 1.1 | ≤ 0.04 | 20 | 40 | 2.5 | > 40 | 40 | > 40 | ≤ 0.04 | 20 | > 40 | 20 | 20 | 5 | 5 | 20 | Stability in solution [1]: 于中性和弱碱性介质中稳定，但于强酸性和强碱性溶液中不稳定; Cytotoxicity or other toxicity [2]: 没有发现其细胞毒性或其它的毒性; Tolerability [2]: 耐受性很好; MIC (金黄色葡萄球菌 011CB20): > 40 µg/mL; MIC (011HT3; [6]): 40 µg/mL; Solubility [3]: 溶于甲醇和水; MIC (011HT18): > 40 µg/mL; MIC [4]: > 40 µg/mL; MIC (表皮葡萄球菌 012GO42): > 40 µg/mL; MIC (Streptogr G02G0CB2): 20 µg/mL; MIC (金黄色葡萄球菌 0121O64): > 40 µg/mL; MIC (S.milleri 02milGR12): 40 µg/mL
Boc-Ile(0)-阿卡加定 [Boc-Ile-Acta] | – | – | – | – | – | – | – | – | – | – | – | – | – | – | – | – | – | – | – | – | MIC (化脓葡萄球菌A561; Boc-derivative table, 接种时间24h): > 40 µg/mL; MIC (大肠杆菌; Boc-derivative table, 接种时间24h): > 40 µg/mL; MIC (金黄色葡萄球菌Exp54146; Boc-derivative table, 接种时间24h): > 40 µg/mL; MIC (屎肠球菌M78L; Boc-derivative table, 接种时间24h): > 40 µg/mL; MIC (金黄色葡萄球菌SG511; [9]): 20 µg/mL; MIC (金黄色葡萄球菌SG511; [10]): 40 µg/mL
Gln(0)-阿卡加定 [Gln-Acta] | 5 | – | – | > 40 | – | – | – | > 40 | – | – | – | – | – | – | – | – | – | 10 | 20 | 40 | –
Ile(0)-阿卡加定 [Ile-Acta] | ≤ 0.04 | ≤ 0.04 | 5 | > 40 | 1.2 | ≤ 0.04 | 40 | 2.5 | 1.2 | > 40 | 10 | > 40 | ≤ 0.04 | 10 | 40 | 2.5 | 2.5 | 5 | 1.2 | 2.5 | MIC (金黄色葡萄球菌 011CB20): 40 µg/mL; MIC (011HT3; [6]): 5 µg/mL; MIC (011HT18): > 40 µg/mL; MIC [4]: > 40 µg/mL; MIC (表皮葡萄球菌 012GO42): > 40 µg/mL; MIC (Streptogr G02G0CB2): 10 µg/mL; MIC (金黄色葡萄球菌 0121O64): > 40 µg/mL; MIC (S.milleri 02milGR12): > 40 µg/mL
Lys(0)-阿卡加定 [Lys-Acta] | ≤ 0.04 | ≤ 0.04 | 5 | > 40 | 0.6 | ≤ 0.04 | 40 | 10 | 2.5 | > 40 | 10 | > 40 | ≤ 0.04 | 10 | > 40 | 10 | 10 | 5 | 1.2 | 2.5 | MIC (金黄色葡萄球菌 011CB20): > 40 µg/mL; MIC (011HT3; [6]): 10 µg/mL; MIC (011HT18): > 40 µg/mL; MIC [4]: > 40 µg/mL; MIC (表皮葡萄球菌 012GO42): > 40 µg/mL; MIC (Streptogr G02G0CB2): 5 µg/mL; MIC (金黄色葡萄球菌 0121O64): > 40 µg/mL; MIC (S.milleri 02milGR12): 40 µg/mL
N-Boc-Abu(0)-阿卡加定 [Boc-Abu-Acta] | – | – | – | – | – | – | – | – | – | – | – | – | – | – | – | – | – | – | – | – | MIC (化脓葡萄球菌A561; Boc-derivative table, 接种时间24h): > 40 µg/mL; MIC (大肠杆菌; Boc-derivative table, 接种时间24h): > 40 µg/mL; MIC (金黄色葡萄球菌Exp54146; Boc-derivative table, 接种时间24h): > 40 µg/mL; MIC (屎肠球菌M78L; Boc-derivative table, 接种时间24h): > 40 µg/mL; MIC (金黄色葡萄球菌SG511; [9]): 5 µg/mL; MIC (金黄色葡萄球菌SG511; [10]): 10 µg/mL
Phe(0)-阿卡加定 [Phe-Acta] | > 40 | – | – | > 40 | – | – | – | 5 | – | – | – | – | – | – | – | – | – | > 40 | 0.6 | 5 | –
Phe-Ala(0)-阿卡加定 [Phe-Ala-Acta] | > 40 | – | – | > 40 | – | – | – | 20 | – | – | – | – | – | – | – | – | – | 10 | 5 | 10 | –
二-Boc-Lys(0)-阿卡加定 [Boc-Lys-Acta] | – | 0.08 | 10 | – | 10 | ≤ 0.04 | 40 | – | 1.2 | > 40 | 40 | > 40 | ≤ 0.04 | 5 | > 40 | 10 | 20 | – | – | – | MIC (化脓葡萄球菌A561; Boc-derivative table, 接种时间24h): ≤ 0.04 µg/mL; MIC (大肠杆菌; Boc-derivative table, 接种时间24h): > 40 µg/mL; MIC (金黄色葡萄球菌Exp54146; Boc-derivative table, 接种时间24h): 10 µg/mL; MIC (011HT3; [6]): 40 µg/mL; MIC (屎肠球菌M78L; Boc-derivative table, 接种时间24h): 10 µg/mL; MIC (011HT18): > 40 µg/mL; MIC [4]: > 40 µg/mL; MIC (表皮葡萄球菌 012GO42): > 40 µg/mL; MIC (Streptogr G02G0CB2): 2.5 µg/mL; MIC (金黄色葡萄球菌 0121O64): > 40 µg/mL; MIC (金黄色葡萄球菌SG511; [9]): 2.5 µg/mL; MIC (金黄色葡萄球菌SG511; [10]): 10 µg/mL; MIC (S.milleri 02milGR12): 5 µg/mL
